ChEMBL document CHEMBL4706588, “Rational design and biological evaluation of a new class of thiazolopyridyl tetrahydroacridines as cholinesterase and GSK-3 dual inhibitors for Alzheimer's disease” (Eur J Med Chem, 2020)
Calls of active or inactive are those of the source. No cut-off for these calls is given here.

Tests used:
Cholinesterase = Cholinesterase (Homo sapiens, UniProt P06276); assay: Inhibition of human BuChE using butyrylthiocholine iodide as substrate preincubated with enzyme for 1 min followed by substrate addition and measured after 10 mins by Ellman's method
[1] = target: Glycogen synthase kinase-3 beta (Homo sapiens, UniProt P49841); assay: biochemical
Description: Inhibition of recombinant human N-terminal His6-tagged GSK-3beta H350L mutant expressed in baculovirus infected Sf21 cells using GSM as substrate incubated for 30 mins in presence of ATP by kinase-glo luminescence assay

Acetylcholinesterase = Acetylcholinesterase (Homo sapiens, UniProt P22303); assay: Inhibition of human AChE using acetylthiocholine iodide as substrate preincubated with enzyme for 1 min followed by substrate addition and measured after 10 mins by Ellman's method
in vitro = details: PAMPA
Description: Effective permeability of compound at 100 ug/ml incubated for 20 hrs by PAMPA-BBB assay

Mus musculus = assay: Cognitive enhancing effect in ICR mouse model of scopolamine-induced memory impairment assessed as improvement in trajectories to platform at 15 mg/kg, po administered 30 mins prior to scopolamine injection by Morris water maze test; assay type: functional, organism-based
[2] = Effect on swimming speed in ICR mouse model of scopolamine-induced memory impairment at 15 mg/kg, po administered 30 mins prior to scopolamine injection by Morris water maze test; assay type: ADME, organism-based; details: in vivo, 0.5 h
[3] = Effect on cell morphology in LPS-treated mouse BV-2 cells at 5 uM pretreated for 1 hr followed by incubation with LPS for 24 hrs by fluorescence microscopic analysis; assay type: ADME; details: bv-2, 25 h
BV-2 = assay: Inhibition of LPS-induced ROS production in mouse BV-2 cells at 5 uM incubated for 1 hr followed by LPS stimulation and measured after 24 hrs by DCFH-DA staining based inverted fluorescence microscopic analysis; assay type: functional, cell-based; details: time 25.0 hrs

Cholinesterase, sequence (P06276 whole entry): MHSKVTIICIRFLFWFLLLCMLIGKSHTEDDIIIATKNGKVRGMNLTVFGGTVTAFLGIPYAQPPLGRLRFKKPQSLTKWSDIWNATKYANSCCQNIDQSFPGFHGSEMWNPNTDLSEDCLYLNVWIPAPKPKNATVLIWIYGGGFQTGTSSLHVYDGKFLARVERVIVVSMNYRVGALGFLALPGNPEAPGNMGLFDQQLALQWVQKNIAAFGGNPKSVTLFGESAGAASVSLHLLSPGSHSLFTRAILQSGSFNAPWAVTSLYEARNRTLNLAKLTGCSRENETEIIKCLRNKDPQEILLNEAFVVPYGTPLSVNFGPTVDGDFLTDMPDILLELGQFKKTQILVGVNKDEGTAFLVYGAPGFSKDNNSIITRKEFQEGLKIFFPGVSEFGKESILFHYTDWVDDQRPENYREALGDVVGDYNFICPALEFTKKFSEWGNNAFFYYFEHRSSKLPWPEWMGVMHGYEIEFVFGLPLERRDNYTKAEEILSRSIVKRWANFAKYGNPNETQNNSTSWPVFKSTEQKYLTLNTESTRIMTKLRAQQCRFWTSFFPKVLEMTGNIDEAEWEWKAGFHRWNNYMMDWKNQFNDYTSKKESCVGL
Acetylcholinesterase, sequence (P22303 whole entry): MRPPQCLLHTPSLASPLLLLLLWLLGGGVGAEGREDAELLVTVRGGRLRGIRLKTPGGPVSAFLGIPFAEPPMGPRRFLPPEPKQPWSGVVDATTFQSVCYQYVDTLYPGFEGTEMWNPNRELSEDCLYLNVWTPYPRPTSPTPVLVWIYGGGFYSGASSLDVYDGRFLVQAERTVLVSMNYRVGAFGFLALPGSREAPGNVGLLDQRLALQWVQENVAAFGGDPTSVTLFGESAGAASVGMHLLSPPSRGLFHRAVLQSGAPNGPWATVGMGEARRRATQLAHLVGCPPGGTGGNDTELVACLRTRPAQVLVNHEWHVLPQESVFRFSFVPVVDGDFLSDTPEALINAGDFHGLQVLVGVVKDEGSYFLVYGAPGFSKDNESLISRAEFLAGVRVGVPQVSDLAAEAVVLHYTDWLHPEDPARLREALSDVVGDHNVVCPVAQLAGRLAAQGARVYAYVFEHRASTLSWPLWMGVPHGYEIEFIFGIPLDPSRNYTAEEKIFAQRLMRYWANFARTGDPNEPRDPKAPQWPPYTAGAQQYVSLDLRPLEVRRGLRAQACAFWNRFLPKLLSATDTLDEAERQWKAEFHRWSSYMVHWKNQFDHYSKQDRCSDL
Glycogen synthase kinase-3 beta, sequence (P49841 whole entry): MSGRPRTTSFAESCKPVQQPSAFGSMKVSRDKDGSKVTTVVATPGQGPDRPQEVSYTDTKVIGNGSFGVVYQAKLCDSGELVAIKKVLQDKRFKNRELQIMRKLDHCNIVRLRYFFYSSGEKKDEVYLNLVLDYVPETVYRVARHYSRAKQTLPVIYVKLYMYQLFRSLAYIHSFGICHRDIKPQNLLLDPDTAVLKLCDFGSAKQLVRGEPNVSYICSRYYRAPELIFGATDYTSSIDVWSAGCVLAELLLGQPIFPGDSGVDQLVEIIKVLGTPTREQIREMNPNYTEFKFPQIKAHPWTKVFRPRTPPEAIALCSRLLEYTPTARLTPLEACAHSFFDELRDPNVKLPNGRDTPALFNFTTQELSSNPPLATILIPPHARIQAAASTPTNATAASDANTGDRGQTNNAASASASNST

| Structure (SMILES) | IC50 (Cholinesterase) [nM] | IC50 [1] [nM] | IC50 (Acetylcholinesterase) [nM] | Papp at 20 h, 100 ug/ml (in vitro) [×10⁻⁶ cm/s] | Activity (Mus musculus) | Activity [2] | Activity [3] | inhibition (BV-2) |
| --- | --- | --- | --- | --- | --- | --- | --- | --- |
| CNC(=O)c1sc(-c2ccnc(NC(=O)CNCCNc3c4c(nc5ccccc35)CCCC4)c2)nc1OCC1CCC1 | 277 | 130 | 155 |  |  |  |  |  |
| CNC(=O)c1sc(-c2ccnc(NC(=O)C3CC3)c2)nc1OCCCc1cn(CCNc2c3c(nc4ccc(OC)cc24)CCCC3)nn1 | > 1000 | 14.6 | > 1000 |  |  |  |  |  |
| CNC(=O)c1sc(-c2ccnc(NC(=O)C3CC3)c2)nc1OCCOCc1cn(CCNc2c3c(nc4ccccc24)CCCC3)nn1 | 360 | 20.8 | 44.7 | 4.6 | Active | Non-Toxic | Non-Toxic | Active |
| O=C(NCCCNc1c2c(nc3ccccc13)CCCC2)c1sc(-c2ccnc(NC(=O)C3CCC3)c2)nc1OCC1CC1 | 30.7 | 80.7 | 295 |  |  |  |  |  |
| O=C(NCCCNc1c2c(nc3ccccc13)CCCC2)c1sc(-c2ccnc(NC(=O)C3CC3)c2)nc1OCC1CC1 | 216 | 104 | 312 |  |  |  |  |  |
| CNC(=O)c1sc(-c2ccnc(NC(=O)C3CC3)c2)nc1OCCOCc1cn(CCNc2c3c(nc4ccc(OC)cc24)CCCC3)nn1 | > 1000 | 31 | > 1000 |  |  |  |  |  |
| CCn1cc(C(=O)O)c(=O)c2ccc(-n3cccc3)cc21 |  |  |  | 2.5 |  |  |  |  |
| CNC(=O)c1sc(-c2ccnc(NC(=O)CNCCCCNc3c4c(nc5ccccc35)CCCC4)c2)nc1OCC1CC1 | 48.3 | 41.6 | 23.1 | 7.1 |  |  |  |  |
| CNC(=O)c1sc(-c2ccnc(NC(=O)C3CC3)c2)nc1OCCOCc1cn(CCNc2c3c(nc4cc(Cl)ccc24)CCCC3)nn1 | > 1000 | 26.3 | 12.1 | 4.2 |  |  |  |  |
| CNC(=O)c1sc(-c2ccnc(NC(=O)C3CC3)c2)nc1OCCOCc1cn(-c2c3c(nc4ccccc24)CCCC3)nn1 | 200 | 83.9 | > 1000 |  |  |  |  |  |
| CCCNC(=O)c1sc(-c2ccnc(NC(=O)CNCCNc3c4c(nc5ccccc35)CCCC4)c2)nc1OCC1CC1 | 89.5 | 239 | 4.9 |  |  |  |  |  |
| CNC(=O)c1sc(-c2ccnc(NC(=O)C3CC3)c2)nc1OCCc1cn(CCNc2c3c(nc4ccc(OC)cc24)CCCC3)nn1 | 37.5 | 37.1 | > 1000 |  |  |  |  |  |
| CNC(=O)c1sc(-c2ccnc(NC(=O)CNCCNc3c4c(nc5ccccc35)CCCC4)c2)nc1OCC(C)(C)C | 236 | 165 | 103 |  |  |  |  |  |
| CNC(=O)c1sc(-c2ccnc(NC(=O)CNCCNc3c4c(nc5cc(Cl)ccc35)CCCC4)c2)nc1OCC1CC1 | 613 | 62.6 | 40.5 |  |  |  |  |  |
| CNC(=O)c1sc(-c2ccnc(NC(=O)C3CC3)c2)nc1OCCc1cn(CCNc2c3c(nc4cc(Cl)ccc24)CCCC3)nn1 | > 1000 | 46.7 | 38.7 | 4.7 |  |  |  |  |
| NC(=O)c1sc(-c2ccnc(NC(=O)CNCCNc3c4c(nc5ccccc35)CCCC4)c2)nc1OCC1CC1 | 190 | 42.6 | 0.8 | 4.9 |  |  |  |  |
| CNC(=O)c1sc(-c2ccnc(NC(=O)CNCCNc3c4c(nc5ccccc35)CCCC4)c2)nc1OC(C)C | 330 | 71.6 | 237 |  |  |  |  |  |
| CNC(=O)c1sc(-c2ccnc(NC(=O)CNCCNc3c4c(nc5ccccc35)CCCC4)c2)nc1OC | 262 | 41.1 | 97.4 |  |  |  |  |  |
| CNC(=O)c1sc(-c2ccnc(NC(=O)CNCCCCCCNc3c4c(nc5ccccc35)CCCC4)c2)nc1OCC1CC1 | 8.2 | 62 | 21.9 |  |  |  |  |  |
| CNC(=O)c1sc(-c2ccnc(NC(=O)C3CC3)c2)nc1OCCc1cn(CCNc2c3c(nc4ccccc24)CCCC3)nn1 | 300 | 72 | 269 |  |  |  |  |  |
| CNC(=O)c1sc(-c2ccnc(NC(=O)CNCCNc3c4c(nc5ccc(OC)cc35)CCCC4)c2)nc1OCC1CC1 | > 1000 | 39.3 | 30.7 | 5.7 |  |  |  |  |
| CC(=O)Nc1cc(-c2nc(OCC3CC3)c(C(=O)NCCCNc3c4c(nc5ccccc35)CCCC4)s2)ccn1 | 173 | 92.8 | 394 |  |  |  |  |  |
| CNC(=O)c1sc(-c2ccnc(NC(=O)CNCCNc3c4c(nc5ccccc35)CCCC4)c2)nc1OCC(C)C | 619 | 132 | 49.2 |  |  |  |  |  |
| CNC(=O)c1sc(-c2ccnc(NC(=O)C3CC3)c2)nc1OCCCc1cn(CCNc2c3c(nc4ccccc24)CCCC3)nn1 | 170 | 64.3 | 168 |  |  |  |  |  |
| CNC(=O)c1sc(-c2ccnc(NC(=O)C3CC3)c2)nc1OCCc1cn(-c2c3c(nc4ccccc24)CCCC3)nn1 | 600 | 51.7 | > 1000 |  |  |  |  |  |
| NC(=O)c1sc(-c2ccnc(NC(=O)C3CC3)c2)nc1OCCc1cn(-c2c3c(nc4ccccc24)CCCC3)nn1 | > 1000 | 6.5 | > 1000 |  |  |  |  |  |
| CCNC(=O)c1sc(-c2ccnc(NC(=O)CNCCNc3c4c(nc5ccccc35)CCCC4)c2)nc1OCC1CC1 | 512 | 114 | 45.2 |  |  |  |  |  |
| CCn1cc(C(=O)O)c(=O)c2cc(F)c(N3CCNC(C)C3)c(F)c21 (stereo unspecified) [LOMEFLOXACIN] |  |  |  | 0.9 |  |  |  |  |
| CNC(=O)c1sc(-c2ccnc(NC(=O)CNCCCCCCCCNc3c4c(nc5ccccc35)CCCC4)c2)nc1OCC1CC1 | 3.2 | 62.2 | 15.2 |  |  |  |  |  |
| COc1nc(-c2ccnc(NC(=O)C3CC3)c2)sc1C(N)=O | > 1000 | 17.2 | > 1000 |  |  |  |  |  |
